Data from US5871779A, “Treatment of arthropathies with vanadate compounds or analogues thereof” (Mount Sinai Hospital Corporation, priority 1996, dated 1999).
pIC50: −log10 of the molar value.

Key:
fos = fos / c-fos mRNA expression in chondrocytes (Northern blot); assay type: cell-based, bovine; settings: stimulus alone; H2 O2 30, 60 and 90 minutes; IL-1, PMA or AA (3 μM) 1 hour
Procedure: The cytokine interleukin 1 (IL 1) has been used to identify the intermediate second messengers which regulate the expression of fos and jun.
In order to elucidate this possibility, the effect of DPI on fos and jun mRNA levels induced by IL 1 was investigated. RNA from chondrocytes treated with IL 1 in the presence and absence of DPI were analyzed by Northern blot analysis using either fos or collagenase cDNA probes.
Since superoxides are rapidly converted to hydrogen peroxide in the cell by superoxide dismutase, whether hydrogen peroxide could mimic the effect of IL 1 in the induction of fos expression was investigated. RNA was extracted from chondrocytes (Kandel et al. supra) treated with H2 O2 for 30, 60 and 90 minutes and examined by Northern blot analysis using a fos cDNA probe.
Bovine articular chondrocytes were isolated and plated as previously described (Kandel R. A. et al. Biochim. Biophys. Acta. 1053, 130-134, 1990). […] The amount of ^3 H-AA liberated into the supernatant was determined. To measure PGE2 production, chondrocytes were incubated for 6 hours in Ham's F12 medium, either alone or with IL 1 or PMA. […] In order to examine the expression of c-fos and c-jun, chondrocytes were incubated for 1 hour in the presence of IL-1, PMA or AA (3 μM). Chondrocytes were washed in PBS and the total RNA extracted as previously described (Cruz. et al, 1991, Biochem. J. 277, 327-330). RNA samples were run on formaldehyde agarose gels and transferred to nylon membrane for northern analysis using cDNA probes for c-fos and c-jun.
The RNA was extracted and examined by Northern blot analysis using cDNA probes for c-fos and collagenase.

cells = assay: cell toxicity of orthovanadate and H2 O2; assay type: cell-based; settings: 1 mM H2 O2, 24 hours
Procedure: Orthovanadate was thought in view of the investigations described in Examples 1-3, to react with H2 O2 to form hydroxyl radicals which are extremely toxic. If the orthovanadate induced formation of hydroxyl radicals is responsible for cell toxicity, then adding exogenous H2 O2 should enhance the effects of orthovanadate. Accordingly, cells were incubated in media alone or containing 1 mM H2 O2 or 10 μM orthovanadate or both for 24 hours. The cells were harvested and cell viability determined.

MDAY-D2 cells = assay: viability of MDAY-D2 cells; assay type: cell-based, mouse; settings: 0-50 μM, 48 hours, three forms compared
Procedure: Fos and jun activity are also required for cellular proliferation in many tumor cell lines. Accordingly, the effect of orthovanadate on adherent cells and cell suspensions were examined. MDAY-D2 (a mouse lymphoid cell line grown in suspension) and HTB14 cells (an adherent human primary astrocytoma cell line) were incubated in media containing 0-50 μM orthovanadate for 48 hours. The cells were harvested and the number of viable cells determined.
Three different forms of vanadyl compounds were examined for their effect on viability of cancer cell lines. MDAY-D2 cells were incubated in media containing 0-50 μM orthovanadate, vanadyl sulphate, or vanadyl hydroperoxide for 48 hours. The cells were harvested and the number of viable cells determined. […] Although there were slight differences in sensitivity, the overall cell death was similar.

MDAY-D2 tumor = MDAY-D2 tumor growth in vivo, orthovanadate, vanadyl sulphate, vanadyl hydroperoxide (Example 6B); parameters: species or system mice
Text: (§1) In order to examine the ability of vanadyl compounds to reduce tumor formation, growth and metastases, a specific animal model which allows investigation of all of these processes in the same animal was chosen. This model involves the injection of a metastatic haematopoietic cell line, MDAY-D2, into mice subcutaneously. These cells form a tumor at the site of injection and its size can be easily determined. In addition, these cells metastasize to the liver and metastases can be detected histologically after day 17 to 19. This model provides a very sensitive and reproducible approach to investigate the effect of vanadyl compounds on tumor growth and metastases.
In a separate experiment using the same animal model, the effect of orthovanadate, vanadyl sulphate and vanadyl hydroperoxide administration on tumor growth in vivo was examined. On Day 1, 20 mice were injected with 2×10^5 MDAY-D2 cell subcutaneously. The mice were divided into four groups of five mice. At day 5, the animals were injected subcutaneously with 50 μl of water alone or containing 10 mg/ml of orthovanadate, 10 mg/ml of vanadyl sulphate, or 10 mg/ml of vanadyl hydroperoxide. This treatment was continued daily for 16 days. At day 21, the mice were sacrificed and the tumors dissected and weighed.

[1] = tested on: metastases of MDAY-D2 cells; assay: liver metastases of MDAY-D2 cells (histology); assay type: in vivo, mice; settings: 500 μg/day; preliminary results
Text: as §1
The metastatic liver was obtained from an animal 24 days following the administration MDAY-D2 cells. The nodules are quite numerous and large.
Livers were removed from animals treated as described above and prepared for histological examination. FIG. 16 compares liver sections from untreated (C), orthovanadate (VO)(500 μg/day) and vanadyl sulphate (VS)(500 μg/day) treated animals. Nodules are identified with an arrow.

P388 (WT) = assay: MTT cytotoxicity assay, P388 (WT); assay type: cell-based, murine; settings: P388 (WT), 72 hours; read-out: IC50 Value
Procedure: (§2) The relative cytotoxicity of various compounds on tumor cell lines was investigated as follows. Cytotoxicity was measured by the MTT microculture tetrazolium colorimetric assay for all cell lines. The relative cytotoxicity of Na3 VO4 and VOSO4 was investigated using the following tumor cell lines: P388(WT) murine leukemia, P388 (ADR) murine leukemia, Lewis murine lung, MCF7 (WT) human breast, […] human lung, K562 human erythroleukemia, A431 human epidermal, LS180 human colon and SK-OV-3 human ovarian. The relative cytotoxicity of doxorubicin, Na3 VO4 and VOSO4 was investigated using the following tumor cell lines: P388(WT) murine leukemia, P388 (ADR) murine leukemia, MCF7(WT) human breast and MCF7 (ADR) human breast. The relative cytotoxicity of BMOV, BEOV and naglivan was investigated using the following tumor cell lines: P388(WT) murine leukemia, P388 (ADR) murine leukemia, Lewis murine lung, H460 human lung, K562 human erythroleukemia, and SK-OV-3 human ovarian.
(§3) The cells were plated (number of cells/well was different from cell line to cell depending on the dividing rate) in a 96-well microculture plate 24 hours prior to the delivery of the vanadium compounds. Serial concentrations of solutions of the test compounds (0.05-100 μM) were delivered to the corresponding wells. A blank column (without cells) and a control column (with cells without vanadium) were left. The cells were incubated for 72 hours continuously. An MTT solution was added to each well after this incubation period and the cells were incubated for 4 more hours for the completion of the dyeing process. The medium was removed find DMSO was added to each well. The absorbance of each well was read with a Titertek Multiskan (310C) spectrophotometer at 570 nm. The percentage of the absorbance of each vanadium concentration relative to the control calculated and the value of the 50% growth inhibition concentration (IC50) was obtained from the % control versus concentration plot. Each assay was repeated three times and the reported IC50 values were the mean of these three runs.

P388 (ADR) = assay: MTT cytotoxicity assay, P388 (ADR); assay type: cell-based, murine; settings: P388 (ADR), 72 hours; read-out: IC50 Value
Procedure: as §2, §3

Lewis lung = assay: MTT cytotoxicity assay, Lewis lung; assay type: cell-based, murine; settings: 72 hours
Procedure: as §2, §3

MCF7 (WT) = assay: MTT cytotoxicity assay, MCF7 (WT); assay type: cell-based, human; settings: MCF7 (WT), 72 hours; read-out: IC50 Value
Procedure: as §2, §3

MCF7 (ADR) = assay: MTT cytotoxicity assay, MCF7 (ADR); assay type: cell-based, human; settings: MCF7 (ADR), 72 hours; read-out: IC50 Value
Procedure: as §2, §3

H460 = assay: MTT cytotoxicity assay, H460; assay type: cell-based, human; settings: H460, 72 hours
Procedure: as §2, §3

K562 = assay: MTT cytotoxicity assay, K562; assay type: cell-based, human; settings: K562, 72 hours
Procedure: as §2
as §3, with “Serial concentrations of solutions of the test compounds (0.05-100 μM) were delivered to the corresponding wells.” left out

A431 = assay: MTT cytotoxicity assay, A431; assay type: cell-based, human; settings: A431, 72 hours
Procedure: as §2
(§4) The cells were plated (number of cells/well was different from cell line to cell depending on the dividing rate) in a 96-well microculture plate 24 hours prior to the delivery of the vanadium compounds. Serial concentrations of solutions of the test compounds (0.05-100 μM) were delivered to the corresponding wells. […] The absorbance of each well was read with a Titertek Multiskan (310C) spectrophotometer at 570 nm. […]

LS180 = assay: MTT cytotoxicity assay, LS180; assay type: cell-based, human; settings: LS180, 72 hours
Procedure: as §2, §4

SK-OV-3 = assay: MTT cytotoxicity assay, SK-OV-3; assay type: cell-based, human; settings: SK-OV-3, 72 hours
Procedure: as §2, §3

synoviocytes = assay: synoviocyte proliferation, dye exclusion (Example 24); assay type: cell-based
Procedure: The effect of vanadium compounds on synoviocyte proliferation was investigated as follows. Synoviocytes were plated on six well plates and treated with orthovanadate or vanadyl sulphate and incubated for 24 hours. The cells were removed and the number of viable cells determined by the dye exclusion method.

carcinogenesis = settings: dietary; cited from earlier work

Compound: OO [H2 O2, hydrogen peroxide]
- stimulation of fos / c-fos expression (fos): stimulates
- effect on cell toxicity, H2 O2 alone (cells): small effect

Compound: O=S(=O)([O-])[O-].[O]=[V+2] [vanadyl sulphate]
- killing of MDAY-D2 cells (MDAY-D2 cells): equally effective
- animal deaths (MDAY-D2 tumor; groups of five, 10 mg/ml, 50 μl daily s.c.): One animal died
- efficacy in reducing tumor growth (MDAY-D2 tumor; mouse, in vivo): less effective
- metastases in liver [1]: did not have detectable levels of metastases
- pIC50 (P388 (WT)): 4.79
- pIC50 (P388 (ADR)): 4.53
- pIC50 (Lewis lung): 4.56
- pIC50 (MCF7 (WT)): 4.98
- pIC50 (MCF7 (ADR)): 4.50
- pIC50 (H460): 5.03
- pIC50 (K562): < 4.00
- pIC50 (A431): 4.54
- pIC50 (LS180): 4.50
- pIC50 (SK-OV-3): 5.72
- cytotoxicity to synoviocytes (synoviocytes): cytotoxic to the cells
- Number of cells (synoviocytes; 25 μM, 24 hours (control 2.6)): 0.2 10^-5
- synoviocyte proliferation (synoviocytes; 24 hours): inhibited synoviocyte proliferation
- chemically induced mammary carcinogenesis in rats (carcinogenesis): inhibit
